Laboratory results taken from patent US9375459B2, “Cyclic peptides with an anti-neoplasic and anti-angiogenic activity” (priority 2011, dated 2016).
Where a SMILES comes first, the peptide text is derived from it. Bridges are numbered along the chain shown (N, C = ends). Where no end group is shown, it is not given here.

What was measured:
[1] = system: primary fibroblasts; settings: peptide combined with prodigiosin
[2] = system: TC-1 tumor; assay: TC-1 subcutaneous tumor model in C57BL/6 mice; type: in vivo; settings: 80 μM, intratumoral route
Procedure: Six-to-eight weeks-old, C57BL/6 female mice of 22 g of weight were supplied by the National Center for Laboratory Animal Production (CENPALAB, Havana, Cuba) and housed under pathogen-free conditions at the Bioterium of the Center for Genetic Engineering and Biotechnology (CIGB). Experiments were carried out in agreement with regulations for proper handling and care of laboratory animals. Tumor volume was measured on each case (estimated by the formula: volume=a^2×(b/2), where a is the width and b is the length of the tumor) and animal survival was evaluated.
Survival was compared between groups by the Logrank test. The statistic parameters were obtained with the aid of the GraphPad Prism 4.0 software (GraphPad Software, San Diego, Calif., USA).
C57BL/6 mice were injected in the right flank by subcutaneous route (s.c.) with 50 000 TC-1 cells. When tumors were detectable, mice were randomized into treatment groups to evaluate the treatment with the peptides subject of study, to evaluate them by different administration routes. Tumor-bearing animals received 6 administrations in alternate days, with 80 μM of the subject peptide, solely received the vehicle as control. Five mice were used for each group. Animals were housed under pathogen-free conditions, and procedures were conducted in agreement with good practices for laboratory animal handling and care.

[3] = system: human tumor cell lines (A549, A375, PC-3, U87); settings: peptide combined with prodigiosin
[4] = system: human tumor cells; assay: Cytotoxic activity screening of peptide library on human tumor cell lines, SRB method; type: cell-based; settings: SRB method; cytotoxic = dose-dependent 50% inhibition of proliferation, GI50 below 100 μM in at least one cell line
Procedure: Negative control cells were cultured on a volume of vehicle equal to that of the experimental samples. An “x-y” curve (dose-response) was established with the percent of surviving cells, compared in respect to the negative control cells, and the following parameters were estimated: 50% growth inhibition (GI50); Total growth inhibition (TGI); and the lethal concentration 50 (LC50), that is the concentration causing the 50% of cell death (Boyd M R, Paull K D, and Rubinstein L R (1992) “Data display and analysis strategies for the NCI Disease Oriented In-Vitro Antitumor Drug Screen, in Cytotoxic Anticancer Drugs: Models and Concept for Drug Discovery and Development” (Baleriote F A, Corbett T H and Baker L H eds) pp 11-34, Kluwer Academia Publishers, Boston).
Were considered as cytotoxic peptides all those peptides being able of inhibiting 50% of the cellular proliferation, in a dose-dependent manner, and showing GI50 values below 100 μM, at least in one of the cell lines studied. The human tumor cell lines used were: HEp-2 (larynx carcinoma), A549 (lung epithelial adenocarcinoma), M14 (melanoma), Colo 205 (colon adenocarcinoma), Ls174T (colon adenocarcinoma), LnCAP (prostate carcinoma), PC-3 (prostate carcinoma) and H 125 (non-small cell lung adenocarcinoma). Represented are primary sequences for the designed peptides, the code used for its generation and their respective cytotoxic capacity on human tumor cells.

Row | Compound | Cytotoxic activity in vitro [4] | further results
1 | CC(C)C[C@@H]1NC(=O)[C@H](Cc2ccccc2)NC(=O)[C@H](CC(=O)O)NC(=O)[C@H](CCCNC(=N)N)NC(=O)CNC(=O)[C@H]([C@@H](C)O)NC(=O)[C@H](CC(N)=O)NC(=O)[C@@H](NC(=O)[C@H](CC(N)=O)NC(=O)[C@H](Cc2ccccc2)NC(=O)CNC(=O)[C@H](Cc2ccc(O)cc2)NC(=O)[C@@H](NC(=O)[C@@H](NC(=O)[C@H](CC(=O)O)NC(=O)CN)[C@@H](C)O)C(C)C)CSSC[C@@H](C(=O)N[C@H](C(=O)N[C@H](C(=O)N[C@@H](CO)C(N)=O)[C@@H](C)O)[C@@H](C)O)NC1=O [Peptide A08P28s-s] (H-GDTVYGFNCNTGRDFLCTTS-NH2; disulfide 9-17) |  | decrease of the cytotoxic activity of prodigiosin on primary fibroblasts [1]: at least one order of magnitude; survival [2]: intermediate survival block; GI50 values [3]: nm range; effect on the cytotoxic activity of prodigiosin [3]: enhanced
2 | CC[C@H](C)[C@H](NC(=O)[C@H](CCCNC(=N)N)NC(=O)[C@H](CCC(N)=O)NC(=O)[C@H](CC(N)=O)NC(=O)[C@H](C)NC(=O)[C@@H](NC(=O)[C@H](Cc1ccc(O)cc1)NC(=O)CNC(=O)[C@H](CO)NC(=O)[C@H](Cc1ccccc1)NC(=O)[C@H](CC(=O)O)NC(=O)[C@H](Cc1ccccc1)NC(=O)[C@@H](NC(=O)[C@H](CC(=O)O)NC(=O)[C@H](CC(N)=O)NC(=O)CNC(=O)CNC(=O)[C@H](C)NC(=O)[C@@H](N)CC(=O)O)[C@@H](C)O)[C@@H](C)O)C(=O)N[C@@H](CC(N)=O)C(N)=O [Peptide M07P39] (H-DAGGNDTFDFSGYTANQRIN-NH2) | − (symbol − indicates its absence, following criteria established in Example 2) | 
3 | CC[C@H](C)[C@H](NC(=O)[C@H](CC(=O)O)NC(=O)[C@H](CCCCN)NC(=O)CNC(=O)[C@H](C)NC(=O)CNC(=O)CNC(=O)[C@H](Cc1c[nH]c2ccccc12)NC(=O)[C@H](CC(C)C)NC(=O)[C@H](CCC(=O)O)NC(=O)[C@@H](N)CC(=O)O)C(=O)N[C@@H](Cc1ccccc1)C(=O)N[C@H](C(=O)N[C@@H](Cc1ccccc1)C(=O)N[C@@H](CO)C(=O)N[C@@H](C)C(=O)N[C@@H](C)C(=O)N[C@@H](CO)C(=O)N[C@@H](CC(=O)O)C(=O)N[C@@H](CO)C(N)=O)C(C)C [Peptide O07P102] (H-DELWGGAGKDIFVFSAASDS-NH2) | − (symbol − indicates its absence, following criteria established in Example 2) | 
4 | CC[C@H](C)[C@H](N)C(=O)N[C@@H](Cc1ccccc1)C(=O)N[C@H](C(=O)N[C@@H](Cc1ccccc1)C(=O)N[C@@H](CO)C(=O)N[C@@H](C)C(=O)N[C@@H](C)C(=O)N[C@@H](CO)C(=O)N[C@@H](CC(=O)O)C(=O)N[C@@H](CO)C(=O)N[C@@H](C)C(=O)N1CCC[C@H]1C(=O)NCC(=O)N[C@@H](C)C(=O)N[C@@H](CO)C(=O)N[C@@H](CC(=O)O)C(=O)N[C@@H](Cc1c[nH]c2ccccc12)C(=O)N[C@H](C(=O)N[C@@H](CCCNC(=N)N)C(=O)N[C@@H](CC(=O)O)C(N)=O)[C@@H](C)CC)C(C)C [Peptide O07P103] (H-IFVFSAASDSAPGASDWIRD-NH2) | − (symbol − indicates its absence, following criteria established in Example 2) | 
5 | CC[C@H](C)[C@H](NC(=O)CNC(=O)[C@H](CCCCN)NC(=O)[C@H](CCC(N)=O)NC(=O)[C@H](Cc1ccccc1)NC(=O)[C@H](CC(=O)O)NC(=O)[C@H](CCCNC(=N)N)NC(=O)[C@@H](NC(=O)[C@H](Cc1c[nH]c2ccccc12)NC(=O)[C@H](CC(=O)O)NC(=O)[C@H](CO)NC(=O)[C@H](C)NC(=O)CNC(=O)[C@@H]1CCCN1C(=O)[C@H](C)N)[C@@H](C)CC)C(=O)N[C@@H](CC(=O)O)C(=O)N[C@@H](CCCCN)C(=O)N[C@H](C(=O)N[C@@H](CC(=O)O)C(=O)N[C@@H](CC(C)C)C(N)=O)[C@@H](C)CC [Peptide O07P104] (H-APGASDWIRDFQKGIDKIDL-NH2) | − (symbol − indicates its absence, following criteria established in Example 2) | 
6 | CC[C@H](C)[C@H](NC(=O)CNC(=O)[C@H](CCCCN)NC(=O)[C@H](CCC(N)=O)NC(=O)[C@@H](N)Cc1ccccc1)C(=O)N[C@@H](CC(=O)O)C(=O)N[C@@H](CCCCN)C(=O)N[C@H](C(=O)N[C@@H](CC(=O)O)C(=O)N[C@@H](CC(C)C)C(=O)N[C@@H](CO)C(=O)N[C@@H](Cc1ccccc1)C(=O)N[C@@H](Cc1ccccc1)C(=O)N[C@@H](CC(N)=O)C(=O)N[C@@H](CCCCN)C(=O)N[C@@H](CCC(=O)O)C(=O)N[C@@H](C)C(=O)N[C@@H](CC(N)=O)C(=O)N[C@@H](CO)C(=O)N[C@@H](CO)C(N)=O)[C@@H](C)CC [Peptide O07P105] (H-FQKGIDKIDLSFFNKEANSS-NH2) | − (symbol − indicates its absence, following criteria established in Example 2) | 
7 | CC[C@H](C)[C@H](NC(=O)[C@H](Cc1ccccc1)NC(=O)[C@H](CC(=O)O)NC(=O)[C@H](CO)NC(=O)[C@H](CO)NC(=O)[C@H](CC(N)=O)NC(=O)[C@H](C)NC(=O)[C@H](CCC(=O)O)NC(=O)[C@H](CCCCN)NC(=O)[C@H](CC(N)=O)NC(=O)[C@H](Cc1ccccc1)NC(=O)[C@H](Cc1ccccc1)NC(=O)[C@@H](N)CO)C(=O)N[C@@H](Cc1c[nH]cn1)C(=O)N[C@@H](Cc1ccccc1)C(=O)N[C@H](C(=O)N[C@@H](CC(=O)O)C(=O)N[C@@H](Cc1c[nH]cn1)C(=O)N[C@@H](Cc1ccccc1)C(=O)N[C@@H](CO)C(N)=O)C(C)C [Peptide O07P106] (H-SFFNKEANSSDFIHFVDHFS-NH2) | − (symbol − indicates its absence, following criteria established in Example 2) | 
8 | CC[C@H](C)[C@H](NC(=O)[C@H](Cc1ccccc1)NC(=O)[C@@H](N)CC(=O)O)C(=O)N[C@@H](Cc1c[nH]cn1)C(=O)N[C@@H](Cc1ccccc1)C(=O)N[C@H](C(=O)N[C@@H](CC(=O)O)C(=O)N[C@@H](Cc1c[nH]cn1)C(=O)N[C@@H](Cc1ccccc1)C(=O)N[C@@H](CO)C(=O)NCC(=O)N[C@H](C(=O)N[C@@H](C)C(=O)NCC(=O)N[C@@H](CCC(=O)O)C(=O)N[C@@H](C)C(=O)N[C@@H](CC(C)C)C(=O)N[C@@H](CC(C)C)C(=O)N[C@@H](CO)C(=O)N[C@@H](Cc1ccc(O)cc1)C(N)=O)[C@@H](C)O)C(C)C [Peptide O07P107] (H-DFIHFVDHFSGTAGEALLSY-NH2) | − (symbol − indicates its absence, following criteria established in Example 2) | 
9 | CC(C)C[C@H](NC(=O)[C@H](C)NC(=O)[C@H](CCC(=O)O)NC(=O)CNC(=O)[C@H](C)NC(=O)[C@@H](NC(=O)CN)[C@@H](C)O)C(=O)N[C@@H](CC(C)C)C(=O)N[C@@H](CO)C(=O)N[C@@H](Cc1ccc(O)cc1)C(=O)N[C@@H](CC(N)=O)C(=O)N[C@@H](C)C(=O)N[C@@H](CO)C(=O)N[C@@H](CO)C(=O)N[C@@H](CC(N)=O)C(=O)N[C@H](C(=O)N[C@H](C(=O)N[C@@H](CC(=O)O)C(=O)N[C@@H](CC(C)C)C(=O)N[C@@H](CO)C(N)=O)[C@@H](C)O)C(C)C [Peptide O07P108] (H-GTAGEALLSYNASSNVTDLS-NH2) | − (symbol − indicates its absence, following criteria established in Example 2) | 
10 | CC[C@H](C)[C@H](NC(=O)[C@H](Cc1ccccc1)NC(=O)[C@H](CC(=O)O)NC(=O)[C@@H](NC(=O)[C@H](C)NC(=O)[C@@H](NC(=O)[C@@H](N)CC(=O)O)C(C)C)[C@@H](C)O)C(=O)N[C@H](C(N)=O)C(C)C [Peptide U07P78, DVATDFIV- amide] (H-DVATDFIV-NH2) | − (symbol − indicates its absence, following criteria established in Example 2) | 
11 | CC[C@H](C)[C@H](NC(=O)[C@@H](NC(=O)[C@H](CC(=O)O)NC(=O)[C@H](CC(N)=O)NC(=O)CNC(=O)[C@@H](N)CO)C(C)C)C(=O)N[C@H](C(=O)NCC(=O)N[C@@H](CC(N)=O)C(=O)N[C@@H](C)C(=O)N[C@@H](C)C(=O)N[C@@H](CC(N)=O)C(=O)N[C@@H](CC(N)=O)C(=O)N[C@H](C(=O)N[C@@H](CC(C)C)C(=O)N[C@@H](CCCCN)C(=O)NCC(=O)NCC(=O)N[C@@H](C)C(=O)NCC(N)=O)C(C)C)C(C)C [Peptide Y07P48] (H-SGNDVIVGNAANNVLKGGAG-NH2) | − (symbol − indicates its absence, following criteria established in Example 2) | 
12 | NSQKVIFAAWDAGGNDTFDF- amide (NSQKVIFAAWDAGGNDTFDF-NH2) [Peptide M07P38] | − (symbol − indicates its absence, following criteria established in Example 2) | 
